Data set [1] addresses T1, TRPV1 receptor (Rattus norvegicus, UniProt O35433).
T1 construct: The neurons of the DRG naturally express the TRPV1 receptor; endogenous in cells; host or cells: primary culture of newborn rat dorsal root ganglion (DRG) neurons
Put plainly: Inhibition of the current induced with capsaicin on rat DRGs (whole-cell patch-clamp). In kind it is cell-based. Particulars: DRG neuron; compound at 10 nM; capsaicin 1 μM; newborn rat DRG neurons. The procedure: Test of Inhibition of the Current Induced with Capsaicin on Rat DRGs
Primary Culture of Rat Dorsal Root Ganglion (DRG) Cells:
The neurons of the DRG naturally express the TRPV1 receptor.
The primary cultures of newborn rat DRGs are prepared using 1-day-old rats. Briefly, after dissection, the ganglions are trypsinized and the cells dissociated by mechanical trituration. The cells are resuspended in an Eagle basal culture medium containing 10% fetal calf serum, 25 mM KCl, 2 mM glutamine, 100 μg/ml gentamicin and 50 ng/ml of NGF, and then deposited on glass slides coated with laminin (0.25×10^6 cells per slide), which are then placed in Corning 12-well dishes. The cells are incubated at 37° C. in a humidified atmosphere containing 5% CO2 and 95% air. […]
The measuring chambers (volume 800 μl) containing the cell preparation are placed on the platform of an inverted microscope (Olympus IMT2) equipped with Hoffman optics (Modulation Contrast, New York) and observed at a magnification of 400×. […] The overall currents (membrane potential set at −60 mV) are recorded with an Axopatch 1D amplifier (Axon Instruments, Foster city, Calif.), connected to a PC running the Pclamp8 software (Axon Instrument). The current plots are recorded on paper and simultaneously digitized (sampling frequency 15 to 25 Hz) and acquired on the hard drive of the PC. […]
Background: Patch clamp records ionic current or voltage across a cell membrane.

SMILES strings stand for the structures.

The values that follow come from patent US8044066B2, “Derivatives of pyrrolopyridine-2-carboxamides, preparation thereof and therapeutic application thereof” (Sanofi-Aventis, priority 2007, dated 2011).

T1 sequence (O35433 whole entry): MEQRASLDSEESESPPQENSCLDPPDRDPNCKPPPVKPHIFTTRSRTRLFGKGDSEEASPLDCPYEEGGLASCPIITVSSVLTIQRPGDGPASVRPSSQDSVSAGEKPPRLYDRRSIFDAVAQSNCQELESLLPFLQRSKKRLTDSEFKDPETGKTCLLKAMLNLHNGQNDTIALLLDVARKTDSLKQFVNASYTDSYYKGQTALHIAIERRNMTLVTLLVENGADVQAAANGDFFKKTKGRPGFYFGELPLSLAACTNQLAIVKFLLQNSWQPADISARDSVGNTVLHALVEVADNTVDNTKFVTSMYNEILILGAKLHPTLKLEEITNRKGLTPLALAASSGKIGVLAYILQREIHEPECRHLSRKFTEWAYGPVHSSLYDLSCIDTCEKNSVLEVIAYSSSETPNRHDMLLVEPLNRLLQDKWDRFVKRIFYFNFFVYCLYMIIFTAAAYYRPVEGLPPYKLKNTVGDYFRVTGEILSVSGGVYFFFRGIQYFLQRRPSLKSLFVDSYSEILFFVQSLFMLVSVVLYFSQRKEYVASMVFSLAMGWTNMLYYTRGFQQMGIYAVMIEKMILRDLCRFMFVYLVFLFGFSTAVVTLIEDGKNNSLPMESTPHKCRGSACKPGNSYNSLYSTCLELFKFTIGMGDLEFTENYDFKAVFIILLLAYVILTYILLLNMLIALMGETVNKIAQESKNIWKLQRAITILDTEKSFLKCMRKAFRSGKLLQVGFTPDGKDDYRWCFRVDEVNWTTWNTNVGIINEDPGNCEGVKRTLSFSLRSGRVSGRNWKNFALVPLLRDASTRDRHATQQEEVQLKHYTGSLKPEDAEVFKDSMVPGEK

What is called melting point is the temperature of the solid-liquid transition. For `Cc1nc2cc(NC(=O)c3cc4cccnc4n3-c3ccncc3)ccc2s1`, the melting point fell in the range of 236 to 238 °C.

As usually defined, the inhibition is the relative decrease from the control value, in per cent. A lower inhibition goes with a weak effect. `Cc1nc2cc(NC(=O)c3cc4cc(F)cnc4n3Cc3ccncc3)ccc2s1` [Compound 1, N-(2-methylbenzothiazol-5-yl)-5-fluoro-1-[(4-pyridyl)methyl]-1H-pyrrolo[2,3-b]pyridine-2-carboxamide] returned an inhibition at 0.01 µM in data set [1] of 50%.
